Measurements published in ChEMBL document CHEMBL4507291 (2021).

Experiments:
[1] = biological target: Serine/threonine-protein kinase 16 (Homo sapiens) (UniProt O75716)
[2] = biological target: T1, Serine/threonine-protein kinase DCLK2 (Homo sapiens) (UniProt Q8N568)
T1 sequence (whole entry): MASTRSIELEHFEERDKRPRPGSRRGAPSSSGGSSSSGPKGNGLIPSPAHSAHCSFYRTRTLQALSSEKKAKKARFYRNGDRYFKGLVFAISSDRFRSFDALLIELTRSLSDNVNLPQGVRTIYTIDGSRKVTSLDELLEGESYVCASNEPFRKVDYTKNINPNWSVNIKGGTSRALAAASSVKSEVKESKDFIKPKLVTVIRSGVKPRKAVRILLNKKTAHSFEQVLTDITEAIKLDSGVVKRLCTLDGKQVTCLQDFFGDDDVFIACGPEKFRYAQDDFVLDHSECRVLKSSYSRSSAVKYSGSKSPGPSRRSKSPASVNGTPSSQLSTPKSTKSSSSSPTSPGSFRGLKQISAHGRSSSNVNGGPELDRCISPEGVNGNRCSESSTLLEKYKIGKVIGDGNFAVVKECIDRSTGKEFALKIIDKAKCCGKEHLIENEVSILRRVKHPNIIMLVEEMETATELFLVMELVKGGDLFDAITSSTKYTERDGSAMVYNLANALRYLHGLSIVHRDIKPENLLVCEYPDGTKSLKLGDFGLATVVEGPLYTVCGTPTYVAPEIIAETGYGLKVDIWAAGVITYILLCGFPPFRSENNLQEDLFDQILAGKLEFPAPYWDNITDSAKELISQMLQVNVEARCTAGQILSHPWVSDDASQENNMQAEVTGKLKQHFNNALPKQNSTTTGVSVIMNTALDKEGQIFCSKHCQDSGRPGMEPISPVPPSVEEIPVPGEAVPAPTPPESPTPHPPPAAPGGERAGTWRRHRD

[3] = biological target: Atypical kinase COQ8B, mitochondrial (Homo sapiens) (UniProt Q96D53)
[4] = biological target: T2, Ephrin type-A receptor 3 (Homo sapiens) (UniProt P29320)
T2 sequence (whole entry): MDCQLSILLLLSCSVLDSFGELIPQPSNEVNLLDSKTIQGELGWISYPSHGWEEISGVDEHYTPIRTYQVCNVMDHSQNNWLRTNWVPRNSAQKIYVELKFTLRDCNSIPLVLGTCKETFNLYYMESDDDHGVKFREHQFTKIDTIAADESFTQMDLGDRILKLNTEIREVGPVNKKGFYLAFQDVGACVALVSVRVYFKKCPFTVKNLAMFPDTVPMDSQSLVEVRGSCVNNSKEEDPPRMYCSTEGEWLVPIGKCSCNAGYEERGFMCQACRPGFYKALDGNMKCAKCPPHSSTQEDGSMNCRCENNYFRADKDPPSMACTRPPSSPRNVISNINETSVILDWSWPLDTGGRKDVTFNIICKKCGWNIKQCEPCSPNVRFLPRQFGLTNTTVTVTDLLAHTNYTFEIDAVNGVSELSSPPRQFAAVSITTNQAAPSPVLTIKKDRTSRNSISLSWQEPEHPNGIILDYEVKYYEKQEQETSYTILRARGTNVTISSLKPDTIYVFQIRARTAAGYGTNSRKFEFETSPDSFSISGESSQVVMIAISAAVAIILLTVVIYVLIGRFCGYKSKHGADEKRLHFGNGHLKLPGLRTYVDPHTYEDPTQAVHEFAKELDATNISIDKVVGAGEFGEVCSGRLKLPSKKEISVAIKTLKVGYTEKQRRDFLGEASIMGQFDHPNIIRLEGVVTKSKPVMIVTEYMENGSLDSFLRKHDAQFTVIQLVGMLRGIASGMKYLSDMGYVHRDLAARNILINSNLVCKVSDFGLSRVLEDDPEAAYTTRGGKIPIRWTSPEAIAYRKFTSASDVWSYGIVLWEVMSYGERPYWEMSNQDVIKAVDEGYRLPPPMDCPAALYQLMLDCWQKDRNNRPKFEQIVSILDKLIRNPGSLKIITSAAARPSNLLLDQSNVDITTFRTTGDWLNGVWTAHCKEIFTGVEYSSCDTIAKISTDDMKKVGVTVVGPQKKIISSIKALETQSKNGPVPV

[5] = biological target: MAP kinase-interacting serine/threonine-protein kinase 2 (Homo sapiens) (UniProt Q9HBH9)
[6] = biological target: Dual specificity tyrosine-phosphorylation-regulated kinase 1A (Homo sapiens) (UniProt Q13627)
[7] = tested on: Tyrosine-protein kinase ABL1 (Homo sapiens), P00519 [H396P]
[8] = tested on: Epidermal growth factor receptor (Homo sapiens), P00533 [G719S]
[9] = biological target: Ribosomal protein S6 kinase alpha-4 (Homo sapiens) (UniProt O75676)
[10] = biological target: Myosin-IIIa (Homo sapiens) (UniProt Q8NEV4)
[11] = biological target: Myosin light chain kinase (Homo sapiens) (UniProt Q32MK0)
[12] = biological target: Uncharacterized serine/threonine-protein kinase SBK3 (Homo sapiens) (UniProt P0C264)
[13] = biological target: Serine/threonine-protein kinase ULK2 (Homo sapiens) (UniProt Q8IYT8)
[14] = biological target: Myosin light chain kinase family member 4 (Homo sapiens) (UniProt Q86YV6)
[15] = Compound concentration 1000.0 nM
[16] = Compound concentration 100.0 nM

Measured: residual activity

Chain of Myosin light chain kinase family member 4 (Homo sapiens) (Q86YV6 whole entry): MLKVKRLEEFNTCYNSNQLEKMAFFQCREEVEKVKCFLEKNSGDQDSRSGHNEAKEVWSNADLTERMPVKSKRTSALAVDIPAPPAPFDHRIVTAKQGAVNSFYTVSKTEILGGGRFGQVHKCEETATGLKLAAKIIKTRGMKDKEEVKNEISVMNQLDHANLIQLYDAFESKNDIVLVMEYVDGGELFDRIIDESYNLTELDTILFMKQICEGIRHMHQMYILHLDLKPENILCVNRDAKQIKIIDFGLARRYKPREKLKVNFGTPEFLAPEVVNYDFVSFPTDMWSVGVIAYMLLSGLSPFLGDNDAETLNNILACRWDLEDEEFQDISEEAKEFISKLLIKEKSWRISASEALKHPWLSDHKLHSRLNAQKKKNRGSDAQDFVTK
Chain of MAP kinase-interacting serine/threonine-protein kinase 2 (Homo sapiens) (Q9HBH9 whole entry, looked up): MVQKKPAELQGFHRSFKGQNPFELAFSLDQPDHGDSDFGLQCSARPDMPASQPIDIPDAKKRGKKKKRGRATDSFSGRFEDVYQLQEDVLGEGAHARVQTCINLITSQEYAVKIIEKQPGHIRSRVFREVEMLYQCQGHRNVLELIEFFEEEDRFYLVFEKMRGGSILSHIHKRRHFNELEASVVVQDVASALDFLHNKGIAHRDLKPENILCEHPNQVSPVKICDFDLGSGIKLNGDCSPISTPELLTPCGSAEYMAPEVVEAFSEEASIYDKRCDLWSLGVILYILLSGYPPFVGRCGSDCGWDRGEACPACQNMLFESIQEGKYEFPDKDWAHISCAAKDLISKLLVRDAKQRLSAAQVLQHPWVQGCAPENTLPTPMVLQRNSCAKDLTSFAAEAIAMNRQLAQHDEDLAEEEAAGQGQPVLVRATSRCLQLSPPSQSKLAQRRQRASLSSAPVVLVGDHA
Chain of Uncharacterized serine/threonine-protein kinase SBK3 (Homo sapiens) (P0C264 whole entry): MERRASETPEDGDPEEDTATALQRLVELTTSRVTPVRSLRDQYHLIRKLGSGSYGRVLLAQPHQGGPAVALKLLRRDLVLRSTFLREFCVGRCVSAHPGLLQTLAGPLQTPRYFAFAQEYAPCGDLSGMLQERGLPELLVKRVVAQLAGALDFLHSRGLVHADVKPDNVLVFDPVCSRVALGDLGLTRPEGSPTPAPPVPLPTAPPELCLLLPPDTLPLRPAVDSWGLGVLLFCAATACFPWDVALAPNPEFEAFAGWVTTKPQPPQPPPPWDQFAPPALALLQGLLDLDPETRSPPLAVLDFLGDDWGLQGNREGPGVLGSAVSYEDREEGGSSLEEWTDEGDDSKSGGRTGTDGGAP
Chain of Serine/threonine-protein kinase ULK2 (Homo sapiens) (Q8IYT8 whole entry): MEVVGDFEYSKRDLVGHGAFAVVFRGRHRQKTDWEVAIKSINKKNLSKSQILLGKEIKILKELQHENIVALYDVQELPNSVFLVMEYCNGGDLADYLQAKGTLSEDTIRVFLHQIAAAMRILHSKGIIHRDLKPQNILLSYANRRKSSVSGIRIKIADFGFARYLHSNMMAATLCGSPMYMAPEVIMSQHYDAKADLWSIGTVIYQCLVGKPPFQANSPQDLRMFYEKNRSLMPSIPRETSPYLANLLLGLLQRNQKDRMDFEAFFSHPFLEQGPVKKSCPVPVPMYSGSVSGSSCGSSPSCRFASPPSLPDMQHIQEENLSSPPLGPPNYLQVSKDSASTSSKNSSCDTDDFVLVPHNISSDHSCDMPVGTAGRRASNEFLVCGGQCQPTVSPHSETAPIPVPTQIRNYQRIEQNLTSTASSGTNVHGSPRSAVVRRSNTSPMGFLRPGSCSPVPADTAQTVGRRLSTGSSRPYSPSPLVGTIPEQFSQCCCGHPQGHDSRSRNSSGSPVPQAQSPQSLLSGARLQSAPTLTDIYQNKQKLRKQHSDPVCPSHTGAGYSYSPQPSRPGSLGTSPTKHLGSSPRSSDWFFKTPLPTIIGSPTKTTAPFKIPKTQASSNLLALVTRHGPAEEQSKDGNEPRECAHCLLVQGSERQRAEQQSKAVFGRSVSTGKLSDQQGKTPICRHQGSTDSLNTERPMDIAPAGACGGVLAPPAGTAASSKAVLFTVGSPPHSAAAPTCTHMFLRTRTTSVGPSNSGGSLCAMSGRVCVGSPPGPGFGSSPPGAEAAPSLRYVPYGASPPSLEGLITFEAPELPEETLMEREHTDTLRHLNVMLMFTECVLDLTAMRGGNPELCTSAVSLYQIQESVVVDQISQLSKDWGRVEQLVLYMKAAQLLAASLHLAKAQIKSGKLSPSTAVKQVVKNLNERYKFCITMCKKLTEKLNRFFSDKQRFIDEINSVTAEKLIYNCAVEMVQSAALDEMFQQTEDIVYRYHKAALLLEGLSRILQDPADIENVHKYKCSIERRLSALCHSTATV
Chain of Myosin light chain kinase (Homo sapiens) (Q32MK0 whole entry): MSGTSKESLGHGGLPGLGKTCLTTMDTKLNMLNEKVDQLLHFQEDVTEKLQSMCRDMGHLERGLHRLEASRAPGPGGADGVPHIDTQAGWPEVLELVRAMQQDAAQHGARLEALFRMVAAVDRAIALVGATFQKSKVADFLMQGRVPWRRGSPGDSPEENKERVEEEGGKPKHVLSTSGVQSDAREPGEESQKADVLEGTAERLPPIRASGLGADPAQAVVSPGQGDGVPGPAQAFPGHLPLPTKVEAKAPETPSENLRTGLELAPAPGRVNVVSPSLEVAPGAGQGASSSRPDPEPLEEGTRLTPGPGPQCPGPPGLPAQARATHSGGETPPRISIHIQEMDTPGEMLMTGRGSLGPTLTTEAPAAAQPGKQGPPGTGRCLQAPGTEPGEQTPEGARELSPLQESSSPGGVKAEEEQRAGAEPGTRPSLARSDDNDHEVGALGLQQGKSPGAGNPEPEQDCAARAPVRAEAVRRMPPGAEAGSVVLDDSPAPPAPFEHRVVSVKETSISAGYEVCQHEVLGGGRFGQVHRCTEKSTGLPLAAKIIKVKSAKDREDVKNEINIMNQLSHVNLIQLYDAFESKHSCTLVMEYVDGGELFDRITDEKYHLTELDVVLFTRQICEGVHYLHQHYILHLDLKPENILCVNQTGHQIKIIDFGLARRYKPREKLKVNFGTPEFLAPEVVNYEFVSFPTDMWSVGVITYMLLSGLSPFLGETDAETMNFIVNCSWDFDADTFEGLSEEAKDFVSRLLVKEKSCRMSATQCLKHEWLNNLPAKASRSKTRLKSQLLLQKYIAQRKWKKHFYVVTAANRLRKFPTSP
Chain of Ribosomal protein S6 kinase alpha-4 (Homo sapiens) (O75676 whole entry, looked up): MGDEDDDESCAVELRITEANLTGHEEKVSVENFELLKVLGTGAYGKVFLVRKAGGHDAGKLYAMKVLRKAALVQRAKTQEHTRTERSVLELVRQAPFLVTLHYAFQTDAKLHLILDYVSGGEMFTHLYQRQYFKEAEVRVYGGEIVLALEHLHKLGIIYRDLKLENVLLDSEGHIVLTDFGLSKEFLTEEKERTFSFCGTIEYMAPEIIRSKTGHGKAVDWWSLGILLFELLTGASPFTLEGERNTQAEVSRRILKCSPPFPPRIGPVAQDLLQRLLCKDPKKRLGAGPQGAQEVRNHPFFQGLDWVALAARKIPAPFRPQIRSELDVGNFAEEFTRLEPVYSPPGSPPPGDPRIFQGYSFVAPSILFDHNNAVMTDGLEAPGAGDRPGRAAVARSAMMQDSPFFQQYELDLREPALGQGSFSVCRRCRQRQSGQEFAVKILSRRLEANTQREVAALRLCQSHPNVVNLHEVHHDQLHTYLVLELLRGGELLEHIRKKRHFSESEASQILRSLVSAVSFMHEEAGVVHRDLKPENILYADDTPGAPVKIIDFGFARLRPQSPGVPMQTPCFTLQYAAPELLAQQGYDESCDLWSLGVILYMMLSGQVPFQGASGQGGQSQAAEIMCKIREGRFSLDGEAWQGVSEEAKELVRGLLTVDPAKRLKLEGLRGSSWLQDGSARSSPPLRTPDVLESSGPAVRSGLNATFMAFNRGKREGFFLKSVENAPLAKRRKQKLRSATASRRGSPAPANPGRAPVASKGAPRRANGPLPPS
Chain of Serine/threonine-protein kinase 16 (Homo sapiens) (O75716 whole entry): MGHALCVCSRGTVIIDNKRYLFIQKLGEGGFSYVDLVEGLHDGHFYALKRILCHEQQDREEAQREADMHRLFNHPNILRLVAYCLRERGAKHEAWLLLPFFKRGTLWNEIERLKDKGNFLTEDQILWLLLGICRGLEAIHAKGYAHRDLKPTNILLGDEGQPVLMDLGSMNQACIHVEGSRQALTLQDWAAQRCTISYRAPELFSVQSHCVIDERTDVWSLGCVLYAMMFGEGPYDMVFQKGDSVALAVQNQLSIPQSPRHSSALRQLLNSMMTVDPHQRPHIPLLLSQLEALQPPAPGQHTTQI
Chain of Atypical kinase COQ8B, mitochondrial (Homo sapiens) (Q96D53 whole entry): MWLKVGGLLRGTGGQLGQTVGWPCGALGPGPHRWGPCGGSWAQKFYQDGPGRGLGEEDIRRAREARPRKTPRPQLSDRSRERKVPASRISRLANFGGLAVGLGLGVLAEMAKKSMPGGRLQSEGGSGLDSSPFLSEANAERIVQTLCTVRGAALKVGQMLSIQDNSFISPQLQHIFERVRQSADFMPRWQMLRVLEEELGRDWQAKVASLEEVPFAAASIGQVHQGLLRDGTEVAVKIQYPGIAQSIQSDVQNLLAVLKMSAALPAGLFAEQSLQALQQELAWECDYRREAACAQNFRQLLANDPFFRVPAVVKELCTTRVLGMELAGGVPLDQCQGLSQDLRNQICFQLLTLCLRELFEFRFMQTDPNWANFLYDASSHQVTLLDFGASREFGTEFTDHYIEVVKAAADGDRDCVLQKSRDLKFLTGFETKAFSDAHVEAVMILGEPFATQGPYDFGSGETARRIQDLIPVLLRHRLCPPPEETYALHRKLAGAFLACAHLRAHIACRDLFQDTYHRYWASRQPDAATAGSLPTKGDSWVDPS

C[C@@H]1CN(c2cc(-c3nn(C)c4ccc(OC5(C)CC5)cc34)ncn2)C[C@H](C)O1 [MLi-2-NC]
inactive: [1]; [15] 100% | [2]; [15] 100% | [3]; [15] 100% | [4]; [15] 68% | [5]; [15] 67% | [6]; [15] 81% | [7]; [15] 70% | [8]; [15] 72% | [9]; [15] 100% | [10]; [15] 100% | [11]; [15] 97% | [12]; [15] 100% | [13]; [15] 59% | [14]; [15] 100%

C[C@@H]1CN(c2cc(-c3n[nH]c4ccc(OC5(C)CC5)cc34)ncn2)C[C@H](C)O1 [MLi-2]
inactive: [1]; [16] 100% | [2]; [16] 89% | [3]; [16] 72% | [4]; [16] 93% | [5]; [16] 74% | [6]; [16] 95% | [7]; [16] 71% | [8]; [16] 59% | [9]; [16] 100% | [10]; [16] 100% | [11]; [16] 87% | [12]; [16] 100% | [13]; [16] 69% | [14]; [16] 100%
